# According to patent publication US20090181898A1, “ABUSE-RESISTANT A[…]” (SHIRE LLC, priority 2002, published 2009):
# “And” between values parts separate entries of the source, which are not always exact repeats. Equal values may be shown once.
# Key:
# [1] = Clinical pharmacokinetics, 25 and 75 mg, compared to Adderall XR and Dexedrine Spansule; conditions: for concentration at 8 h / concentration at 10 h / concentration at 12 h / concentration at 16 h / concentration at 24 h / concentration at 48 h / concentration at 72 h / L-lysine-d-amphetamine intact conjugate concentration / L-lysine-d-amphetamine intact conjugate AUCinf / L-lysine-d-amphetamine intact conjugate AUClast / L-lysine-d-amphetamine intact conjugate Cmax / L-lysine-d-amphetamine intact conjugate Tmax: human; for concentration at 8 h / concentration at 10 h / concentration at 12 h / concentration at 16 h / concentration at 24 h / concentration at 48 h / concentration at 72 h: in vivo, po, L-lysine-d-amphetamine intact conjugate concentration
# rats = assay: Single oral dose toxicity; assay type: in vivo, Sprague Dawley rats; conditions: rat
# Experimental: Three male and three female Sprague Dawley rats per group were given a single oral administration of L-lysine-d-amphetamine at 0.1, 1.0, 10, 60, 100, or 1000 mg/kg (Table 53).
# Animals found dead, or sacrificed moribund were necropsied and discarded.
# [2] = Clinical steady-state pharmacokinetics, 70 mg capsules once daily for 7 days, healthy adults, fasting
# Experimental: Patients fasted for at least 10 hours before and 4 hours after final dosing. Venous blood samples (7 mL) were drawn into EDTA vacutainers both before medication dosing on days 0, 1, 6, and 7 (in the morning) and at 16 time points (hours 0.5, 1, 1.5, 2, 3, 4, 5, 6, 7, 8, 10, 12, 16, 24, 48, and 72) after final dosing on day 7. Immediately after sample collection, vacutainer tubes were centrifuged at 3000 rpm at 4° C. for 10 minutes; within 1 hour of collection, they were stored at −20° C.
# [3] = Stability under treatment with commercially available acids and bases; assay type: physicochemical; conditions: 20° C.
# Experimental: For acids and bases (Table 59), 10 mg of Lys-Amp was mixed with 2 mL of each stock solution, and the solution was shaken at 20° C. For enzyme treatment (Table 60), 10 mg Lys-Amp was mixed with 5 mL of each enzyme cocktail, and the solution was shaken at 37° C. […] Many of the commercially available reagents also contained various solvents and/or surfactants.
# Unless otherwise indicated, solutions were used directly from the container and were combined with neat Lys-Amp solid. Lewis Red Devil® Lye, Enforcer Drain Care® Septic Treatment, and Rid-X® Septic Treatment were prepared as saturated solutions in H2O. Enzymes used were purchased from Sigma and directly dissolved in water (3 mg/mL pepsin, 10 mg/mL pancreatin, 3 mg/mL pronase, 3 mg/mL esterase), while enzyme-containing nutraceuticals such as Omnigest® and VitälZym® were first either crushed or opened (1 tablet or capsule per 5 mL of H2O).
# [4] = 75 mg, oral 75 mg L-lysine-d-amphetamine, individual subjects
# [5] = 75 mg, oral 75 mg L-lysine-d-amphetamine, mean
# [6] = oral 25 mg L-lysine-d-amphetamine, individual subjects
# [7] = oral 75 mg L-lysine-d-amphetamine, individual subjects
# [8] = steady state, 70 mg once daily for 7 days, healthy adults, fasting, mean n = 11
smiles,measurement,setting,value
"CC(Cc1ccccc1)NC(=O)C(N)CCCCN [L-lysine-d-amphetamine, 2,6-diaminohexanoic acid-(1-methyl-2-phenylethyl)-amide]",concentration at 8 h,"[1]; 75 mg, oral 75 mg L-lysine-d-amphetamine, 8 h, individual subjects",0 ng/mL
same,concentration at 8 h,"[1]; 75 mg, oral 75 mg L-lysine-d-amphetamine, 8 h, mean",0 ng/mL
same,concentration at 10 h,"[1]; 75 mg, oral 75 mg L-lysine-d-amphetamine, 10 h, individual subjects",0 ng/mL
same,concentration at 10 h,"[1]; 75 mg, oral 75 mg L-lysine-d-amphetamine, 10 h, mean",0 ng/mL
same,concentration at 12 h,"[1]; 75 mg, oral 75 mg L-lysine-d-amphetamine, 12 h, individual subjects",0 ng/mL
same,concentration at 12 h,"[1]; 75 mg, oral 75 mg L-lysine-d-amphetamine, 12 h, mean",0 ng/mL
same,concentration at 16 h,[1]; [4],0 ng/mL
same,concentration at 16 h,[1]; [5],0 ng/mL
same,concentration at 24 h,[1]; [4],0 ng/mL
same,concentration at 24 h,[1]; [5],0 ng/mL
same,concentration at 48 h,[1]; [4],0 ng/mL
same,concentration at 48 h,[1]; [5],0 ng/mL
same,concentration at 72 h,[1]; [4],0 ng/mL
same,concentration at 72 h,[1]; [5],0 ng/mL
same,L-lysine-d-amphetamine intact conjugate concentration,"[1]; oral 25 mg L-lysine-d-amphetamine, 1 h, individual subjects",9.2 ng/mL and 10.9 ng/mL and 11.2 ng/mL and 15.2 ng/mL and 12.5 ng/mL and 9.1 ng/mL and 2.7 ng/mL and 20.1 ng/mL and 10.5 ng/mL and 10.8 ng/mL
same,L-lysine-d-amphetamine intact conjugate concentration,"[1]; oral 25 mg L-lysine-d-amphetamine, 2 h, individual subjects",2.1 ng/mL and 3.1 ng/mL and 1.4 ng/mL and 2.5 ng/mL and 2.9 ng/mL and 1.9 ng/mL and 4.0 ng/mL and 2.3 ng/mL and 0 ng/mL and 1.7 ng/mL
same,L-lysine-d-amphetamine intact conjugate concentration,"[1]; oral 25 mg L-lysine-d-amphetamine, 3 h, individual subjects",0 ng/mL
same,L-lysine-d-amphetamine intact conjugate concentration,"[1]; oral 25 mg L-lysine-d-amphetamine, 4 h, individual subjects",0 ng/mL
same,L-lysine-d-amphetamine intact conjugate concentration,"[1]; oral 25 mg L-lysine-d-amphetamine, 5 h, individual subjects",0 ng/mL
same,L-lysine-d-amphetamine intact conjugate concentration,"[1]; oral 25 mg L-lysine-d-amphetamine, 6 h, individual subjects",0 ng/mL
same,L-lysine-d-amphetamine intact conjugate concentration,"[1]; oral 25 mg L-lysine-d-amphetamine, 7 h, individual subjects",0 ng/mL
same,L-lysine-d-amphetamine intact conjugate concentration,"[1]; oral 25 mg L-lysine-d-amphetamine, 8 h, individual subjects",0 ng/mL
same,L-lysine-d-amphetamine intact conjugate concentration,"[1]; oral 25 mg L-lysine-d-amphetamine, 10 h, individual subjects",0 ng/mL
same,L-lysine-d-amphetamine intact conjugate concentration,"[1]; oral 25 mg L-lysine-d-amphetamine, 12 h, individual subjects",0 ng/mL
same,L-lysine-d-amphetamine intact conjugate AUCinf,[1]; [6],10.62 ng·h/mL and 12.83 ng·h/mL and 11.64 ng·h/mL and 17.66 ng·h/mL and 12.65 ng·h/mL and 9.759 ng·h/mL and 19.56 ng·h/mL and 13.3 ng·h/mL
same,L-lysine-d-amphetamine intact conjugate AUClast,[1]; [6],9.18 ng·h/mL and 10.41 ng·h/mL and 10.95 ng·h/mL and 16.31 ng·h/mL and 10.68 ng·h/mL and 8.583 ng·h/mL and 5.439 ng·h/mL and 18.51 ng·h/mL and 10.77 ng·h/mL and 12.35 ng·h/mL
same,L-lysine-d-amphetamine intact conjugate Cmax,[1]; [6],9.18 ng/mL and 10.9 ng/mL and 11.2 ng/mL and 15.2 ng/mL and 12.5 ng/mL and 9.05 ng/mL and 6.18 ng/mL and 20.1 ng/mL and 10.5 ng/mL and 10.8 ng/mL
same,L-lysine-d-amphetamine intact conjugate Tmax,[1]; [6],1.5 h
same,L-lysine-d-amphetamine intact conjugate AUCinf,[1]; [7],52.5 ng·h/mL and 87.0 ng·h/mL and 45.0 ng·h/mL and 33.0 ng·h/mL and 44.9 ng·h/mL and 52.3 ng·h/mL and 34.2 ng·h/mL and 31.4 ng·h/mL and 102.9 ng·h/mL and 111.7 ng·h/mL
same,L-lysine-d-amphetamine intact conjugate AUClast,[1]; [7],51.2 ng·h/mL and 86.1 ng·h/mL and 44.2 ng·h/mL and 32.0 ng·h/mL and 43.7 ng·h/mL and 50.4 ng·h/mL and 30.9 ng·h/mL and 29.8 ng·h/mL and 102.1 ng·h/mL and 110.8 ng·h/mL
same,L-lysine-d-amphetamine intact conjugate Cmax,[1]; [7],48.0 ng/mL and 80.1 ng/mL and 40.5 ng/mL and 29.0 ng/mL and 41.5 ng/mL and 26.5 ng/mL and 30.8 ng/mL and 23.4 ng/mL and 127.0 ng/mL and 88.9 ng/mL
same,L-lysine-d-amphetamine intact conjugate Tmax,[1]; [7],1.5 h
same,Intact conjugate as percent of total drug absorption (AUCinf-molar basis),"[1]; humans, oral, 25 mg",1.6%
same,Bioavailability over twelve hours vs Adderall XR® (d-amphetamine plus l-amphetamine levels),"[1]; humans, oral, 75 mg",approximately equivalent
same,Bioavailability over twelve hours vs Dexedrine Spansule®,"[1]; humans, oral, 75 mg",over twenty percent higher
same,Intact conjugate as percent of total drug absorption (AUCinf-molar basis),"[1]; humans, oral, 75 mg",2.0%
same,Bioavailability (AUCinf) of d-amphetamine vs both extended release amphetamine products,"[1]; humans, oral, 75 mg vs Adderall XR® 35 mg and Dexedrine Spansule® 30 mg",approximately equivalent
same,Time of peak levels of intact conjugate,"[1]; humans, oral, 25 and 75 mg",about one hour
same,Elimination of intact conjugate,"[1]; humans, oral, even at the highest dose",no detectable concentrations present by five hours
same,Mortality,"rats; oral, 1000 mg/kg",only one death occurred out of a group of six animals
same,Lethal oral dose,rats; single oral administration,above 1000 mg/kg
same,Time within which L-lysine-d-amphetamine was completely eliminated,"[2]; healthy adults, 70 mg",≤ 6 h
same,Tolerability,"[2]; healthy adults, 70 mg, 7 days",well tolerated
same,AUC(0-inf),"[2]; human, in vivo, 70 mg",61.1 ng·h/mL
same,Cmax,"[2]; human, in vivo, 70 mg",47.9 ng/mL
same,Tmax,"[2]; human, in vivo, 70 mg",1.14 h
same,half-life,"[2]; human, in vivo, 70 mg",0.43 h
same,AUC(0-t),"[2]; human, in vivo, 70 mg, AUC0-24 of intact L-lysine-d-amphetamine, steady state, 70 mg once daily for 7 days, healthy adults, fasting, mean n = 11",60.7 ng·h/mL
same,AUC(0-t),"[2]; human, in vivo, 70 mg, AUC0-t of intact L-lysine-d-amphetamine, steady state, 70 mg once daily for 7 days, healthy adults, fasting, mean n = 11",59.4 ng·h/mL
same,AUC(0-t),"[2]; human, in vivo, 70 mg, Mean AUC0-24 of intact L-lysine-d-amphetamine, healthy adults, 70 mg once daily, after dose 7",60.7 ng·h/mL
same,AUC0-∞ of intact L-lysine-d-amphetamine,[2]; [8],61.06 ng·h/mL
same,Cmin of intact L-lysine-d-amphetamine,[2]; [8],0.0 ng/mL
same,FI of intact L-lysine-d-amphetamine,[2]; [8],1896.06%
same,Hydrolysis by commercial acids and bases,[3]; up to 24 h,ineffective
same,d-amphetamine release,[3]; Miracle-Gro®,7%
same,d-amphetamine release,[3]; Olympic® Deck Cleaner,4%
